The source of these data is ChEMBL document CHEMBL3603838, “Guanidinium compounds with sub-micromolar activities against Mycobacterium tuberculosis. Synthesis, characterization and biological evaluations” (Bioorg Med Chem, 2015).

≈ marks a conversion by molar mass, not a printed value.

In data set [1] the test system is Mycobacterium tuberculosis. Description: Antimycobacterial activity against Mycobacterium tuberculosis H37Rv after 6 days by MTT assay. The data set is classed as functional, organism-based. To be noted: 144 h. (Tetrazolium dyes change colour on reduction, which living cells bring about.)
Data set [2] can be described thus: Cytotoxicity against human MRC5 cells after 24 hrs. The data set is classed as cell-based.
Data set [3] is described as follows: Selectivity index, ratio of CC50 for human MRC5 cells to MIC for Mycobacterium tuberculosis H37Rv. The settings on record: read-out: Selectivity Index. The data set is classed as toxicity, cell-based.

With `N=C(N)NCCc1cc2c(O)c(c1)Cc1cc(CCNC(=N)N)cc(c1O)Cc1cc(CCNC(=N)N)cc(c1O)Cc1cc(CCNC(=N)N)cc(c1O)C2`, the lowest concentration to inhibit growth in data set [1] (MIC) was 0.8 µM (≈ 0.612 µg/mL). The compound further yielded a CC50 at 24 h in data set [2] of over 256 µg/mL. Besides, in data set [3], the selectivity ratio was over 256.

As for `N=C(N)NCCc1ccc(OCc2ccccc2)cc1`, in data set [1], half-maximal inhibition (IC50) was put at 5900 nM and 25 µM (≈ 6.73 µg/mL) was the least that counted as inhibitory (MIC). In addition, the CC50 at 24 h in data set [2] was 26 µg/mL (≈ 96.5 µM). Also, the selectivity ratio in data set [3] came to 2.6.

In the case of `N=C(N)NCCc1ccc(OCc2ccccc2COc2ccc(CCNC(=N)N)cc2)cc1.O=C(O)C(F)(F)F`, in data set [1], half-maximal inhibition (IC50) required 1500 nM and 6.2 µM was the least that counted as inhibitory (MIC). The midpoint of cytotoxicity in data set [2], the CC50 at 24 h, lay at 100 µg/mL. For the same compound, the selectivity ratio in data set [3] was 24.

As for `N=C(N)NCCc1ccc(OCc2cccc(COc3ccc(CCNC(=N)N)cc3)c2)cc1.O=C(O)C(F)(F)F`, in data set [1], the 50% inhibitory concentration (IC50) was 700 nM and the MIC is 3.1 µM. Further, the half-maximal cytotoxic concentration (CC50) at 24 h in data set [2] amounted to 34.5 µg/mL. In addition, the selectivity ratio in data set [3] is 16.

In the case of `N=C(N)NCCc1ccc(OCc2ccc(COc3ccc(CCNC(=N)N)cc3)cc2)cc1.O=C(O)C(F)(F)F`, in data set [1], the IC50 was 800 nM and the lowest concentration to inhibit growth (MIC) was 3.1 µM. In data set [2], this compound had a CC50 at 24 h of 21 µg/mL. In data set [3], the selectivity ratio was determined as 10.

In the case of `N=C(N)NCCc1ccc(OCc2cc(COc3ccc(CCNC(=N)N)cc3)cc(COc3ccc(CCNC(=N)N)cc3)c2)cc1.O=C(O)C(F)(F)F`, in data set [1], the IC50 came to 350 nM and the minimal inhibitory concentration (MIC) worked out at 0.8 µM. The same compound had a CC50 at 24 h in data set [2] of 39.5 µg/mL. For the same compound, the selectivity ratio in data set [3] stood at 49.

Turning to `N=C(N)NCCc1ccc(OCc2cc(COc3ccc(CCNC(=N)N)cc3)c(COc3ccc(CCNC(=N)N)cc3)cc2COc2ccc(CCNC(=N)N)cc2)cc1.O=C(O)C(F)(F)F`, in data set [1], it took 500 nM to reach half-maximal inhibition (IC50) and the MIC came out at 3.2 µM. In data set [2], this compound registered a CC50 at 24 h of 49 µg/mL. In addition, in data set [3], the selectivity ratio was 11.5.

On to `N=C(N)NCCc1ccc(OCc2c(COc3ccc(CCNC(=N)N)cc3)c(COc3ccc(CCNC(=N)N)cc3)c(COc3ccc(CCNC(=N)N)cc3)c(COc3ccc(CCNC(=N)N)cc3)c2COc2ccc(CCNC(=N)N)cc2)cc1`, for which, in data set [1], the half-inhibitory concentration (IC50) was found to be 3800 nM and inhibition of growth (MIC) required 12.5 µM (≈ 15.3 µg/mL). The compound also gave a CC50 at 24 h in data set [2] of 26 µg/mL (≈ 21.2 µM). For the same compound, the selectivity ratio in data set [3] is 1.

Consider `O=C(O)c1cn(C2CC2)c2cc(N3CCNCC3)c(F)cc2c1=O` [CIPROFLOXACIN], for which, in data set [1], the half-maximal inhibitory concentration (IC50) turned out to be 600 nM and the MIC was 2.5 µM (≈ 0.828 µg/mL).

As to `CC[C@@H](CO)NCCN[C@@H](CC)CO` [ETHAMBUTOL], inhibition of growth in data set [1] (MIC) required 9.8 µM (≈ 2 µg/mL). Moreover, the CC50 at 24 h in data set [2] is over 10 µg/mL. Further, the selectivity ratio in data set [3] was over 5.

In data set [1], `NNC(=O)c1ccncc1` [ISONIAZID] displayed an IC50 of 220 nM and a minimal inhibitory concentration (MIC) of 0.6 µM (≈ 0.0823 µg/mL). The CC50 at 24 h in data set [2] was over 10 µg/mL. In addition, the selectivity ratio in data set [3] was over 125.

In turn, `CN[C@@H]1[C@H](O[C@H]2[C@H](O[C@H]3[C@H](O)[C@@H](O)[C@H](N=C(N)N)[C@@H](O)[C@@H]3N=C(N)N)O[C@@H](C)[C@]2(O)C=O)O[C@@H](CO)[C@H](O)[C@H]1O` [STREPTOMYCIN] registered an MIC in data set [1] of 0.7 µM (≈ 0.407 µg/mL).

The term MIC denotes the smallest concentration in the dilution series that meets the test's criterion for growth inhibition. Read a high MIC as a less susceptible organism. The term CC50 denotes the concentration at which the toxic effect on the cells reaches its halfway point. Higher therefore signals lower toxicity to the cells. A word on the IC50: it is the point on the concentration scale where inhibition reaches its midpoint. A high value points to weaker potency.
